Results taken from patent US5126341A, “Anti-inflammatory 1,8-naphthyridin-2-one derivatives” (Kyowa Hakko Kogyo Co., Ltd., priority 1990, dated 1992).
Like-named read-outs stand apart in the source and are kept apart here.

Legend:
[1] = system: zymosan-induced paw edema; experiment: Effect on zymosan-induced paw edema; type: in vivo, male Wistar rats; conditions: rat, 100 mg/kg p.o., 1 hour before 1% zymosan; paw volume 4 hours after injection
Method: b) Effect on zymosan-induced paw edema
(§1) The experiment was carried out in the same manner as in the carrageenin-induced paw edema test except that 1% zymosan (Zymosan A®; Sigma Chemical Co.) was used in place of 1% carrageenin and the right hind paw volume was measured 4 hours after the injection of the edema-inducing substance instead of 3 hours. The swelling rate and the suppression rate were calculated by equation 1 and equation 2, respectively.

[2] = system: Type III allergic reaction-induced pleurisy; experiment: Effect on Type III allergic reaction-induced pleurisy; type: in vivo, male Wistar rats; conditions: po, 4.5 h, rat, 100 mg/kg p.o., four and a half hours after induction of pleurisy
Method: d) Effect on Type III allergic reaction-induced pleurisy
IgG was purified from rabbit anti-OA serum prepared in advance by the method of Koda et al. [Folia Pharmacol., Japon 66, 237, (1970)] in the following manner.
A saturated solution of ammonium sulfate (half volume of the serum) was added to the anti-OA serum, and the mixture was left for one hour at 4° C. The precipitate was taken by centrifugation (3,000 rpm, 30 min, 4° C.) and dissolved in phosphate buffered saline of Dulbecco. Then, ammonium sulfate fractionation was carried out three times in the same manner as above, whereby a purified IgG fraction was obtained.
Male Wistar rats weighing 225-250 g were pre-bred for several days and fasted overnight prior to the experiment The test compound (100 mg/kg) was orally administered to the animals, and after 30 minutes, IgG of rabbit anti-OA (0.2 ml, 5 mg protein/ml) was injected into the pleural cavity of the animals under anesthesia with ether. Thirty minutes after the injection of IgG, OA (albumin egg grade III; Sigma Chemical Co.) was intravenously injected into the animals as an inducer of pleurisy. After two hours, Evans Blue (25 mg/kg) was intravenously injected, and four and a half hours after the induction of pleurisy, the animals were killed by bleeding.
Then, an exudate in the pleural cavity was obtained, and the volume of the exudate was measured. The pleural cavity was rinsed with 5 ml of physiological saline and the rinsings were added to the exudate. The number of infiltrated cells in the mixture was counted and the volume of the dye in the mixture was determined by the absorption at 625 nm [Agent Actions., 25, 326 (1988)]. The suppression rates for the volume of the exudate, the number of infiltrated cells and the volume of the dye in the pleural cavity were calculated by the following equation 3. [formula]
S.V: the value obtained with the group administered with the test compound and in which pleurisy is induced
N.V: the value obtained with the group in which pleurisy is not induced
P.V: the value obtained with the group administered with no test compound and in which pleurisy is induced

[3] = system: carrageenin-induced paw edema; experiment: Effect on carrageenin-induced paw edema; type: in vivo, male Wistar rats; conditions: po; rat, 100 mg/kg p.o., 1 hour before 1% carrageenin; paw volume 3 hours after injection; read-out: Suppression rate for paw swelling, (a) carrageenin-induced edema
Method: a) Effect on carrageenin-induced paw edema
Male Wistar rats weighing 150 to 160 g (n=3-5) were used in the experiment. After the right hind paw volume was measured with the plethysmograph (TK-101; Unicom Co., Ltd.), the test compound (100 mg/kg) was orally administered. After one hour, 0.1 ml of 1 % carrageenin (λ-carrageenin; PICNIN-A®, Zushi Kagaku Co., Ltd.) was subcutaneously injected into the right hind paw footpad. Three hours after the injection of carrageenin, the right hind paw volume was measured and the swelling rate was determined by the following equation 1. [formula]
Vt: the right hind paw volume measured 3 hours after the injection of carrageenin
Vo: the right hind paw volume measured prior to the injection of carrageenin
The suppression rate was calculated by the following equation 2. [formula]
Swt: the swelling rate of the group administered with the test compound
Swc: the swelling rate of the control group administered with no test compound

male dd-mice = conditions: mouse, in vivo, 10080 min; for Acute toxicity (MLD, Minimum Lethal Dose) i.p.: ip; for Acute toxicity (MLD, Minimum Lethal Dose) p.o.: po
Method: The test compounds were orally or intraperitoneally administered to male dd-mice weighing 20 to 25 g. MLD (Minimum Lethal Dose) was determined by observing the mortality for seven days after the administration.

[4] = system: arachidonic acid-induced paw edema; experiment: Arachidonic acid-induced paw edema; type: in vivo, male Wistar rats; conditions: rat, 100 mg/kg p.o., 1 hour before 0.5% arachidonic acid; paw volume one hour after injection
Method: c) Arachidonic acid-induced paw edema
as §1, with “0.5% arachidonic acid” for “1% zymosan (Zymosan A®; Sigma Chemical Co.)”, “one hour” for “4 hours”

[5] = Evans Blue 25 mg/kg i.v., absorption at 625 nm, read-out: Suppression rate, volume of dye in the exudate
[6] = read-out: Suppression rate, volume of exudate
[7] = read-out: Suppression rate, number of infiltrated cells in the exudate

Structure (SMILES)	Suppression rate for paw swelling, (b) zymosan-induced edema [1] [%]	inhibition in vivo at 100 mg/kg [2, 5] [%]	inhibition in vivo at 100 mg/kg [2, 6] [%]	inhibition in vivo at 100 mg/kg [3] [%]	Acute toxicity (MLD, Minimum Lethal Dose) i.p. (male dd-mice) [mg/kg]	Acute toxicity (MLD, Minimum Lethal Dose) p.o. (male dd-mice) [mg/kg]	inhibition in vivo at 100 mg/kg [2, 7] [%]	Suppression rate for paw swelling, (c) arachidonic acid-induced edema [4] [%]
CCCCNC(=O)c1c(O)c2cccnc2n(-c2ccccc2)c1=O [Compound 1, N-(n-Butyl)-4-hydroxy-2-oxo-1-phenyl-1H-1,8-naphthyridine-3-carboxamide]	20.5							
CNC(=O)c1c(O)c2cccnc2n(-c2ccccc2)c1=O [Compound 2, 4-Hydroxy-N-methyl-2-oxo-1-phenyl-1H-1,8-naphthyridine-3-carboxamide]		28.3	27.2					
CN(C)NC(=O)c1c(O)c2cccnc2n(-c2ccccc2)c1=O [Compound 6, N-Dimethylamino-4-hydroxy-2-oxo-1-phenyl-1H-1,8-naphthyridine-3-carboxamide]	27.3			31.7	> 100	> 300		
CN(C)CCNC(=O)c1c(O)c2cccnc2n(-c2ccccc2)c1=O [Compound 7, N-(2-Dimethylaminoethyl)-4-hydroxy-2-oxo-1-phenyl-1H-1,8-naphthyridine-3-carboxamide]				23.2	> 100	> 300		
O=C(Nc1cccc(Cl)c1)c1c(O)c2cccnc2n(-c2ccccc2)c1=O [Compound 8, N-(3-Chlorophenyl)-4-hydroxy-2-oxo-1-phenyl-1H-1,8-naphthyridine-3-carboxamide]							21.7	
Cc1cccc(NC(=O)c2c(O)c3cccnc3n(-c3ccccc3)c2=O)c1 [Compound 9, 4-Hydroxy-N-(3-methylphenyl)-2-oxo-1-phenyl-1H-1,8-naphthyridine-3-carboxamide]			27.3	25.2	> 100	> 300	28.5	
O=C(Nc1cccc([N+](=O)[O-])c1)c1c(O)c2cccnc2n(-c2ccccc2)c1=O [Compound 11, 4-Hydroxy-N-(3-nitrophenyl)-2-oxo-1-phenyl-1H-1,8-naphthyridine-3-carboxamide]		37.2	22.1		> 100	> 300		
O=C(Nc1nccs1)c1c(O)c2cccnc2n(-c2ccccc2)c1=O [Compound 12, 4-Hydroxy-2-oxo-1-phenyl-N-(2-thiazolyl)-1H-1,8-naphthyridine-3-carboxamide]		24						
O=C(Nc1nc2ccccc2s1)c1c(O)c2cccnc2n(-c2ccccc2)c1=O [Compound 13, N-(2-Benzothiazolyl)-4-hydroxy-2-oxo-1-phenyl-1H-1,8-naphthyridine-3-carboxamide]		25.8	28.9					
COc1ccc(NC(=O)c2c(O)c3cccnc3n(-c3ccccc3)c2=O)cc1 [Compound 16, 4-Hydroxy-N-(4-methoxyphenyl)-2-oxo-1-phenyl-1H-1,8-naphthyridine-3-carboxamide]							25.4	
Cc1ccc(NC(=O)c2c(O)c3cccnc3n(-c3ccccc3)c2=O)cc1 [Compound 17, 4-Hydroxy-N-(4-methylphenyl)-2-oxo-1-phenyl-1H-1,8-naphthyridine-3-carboxamide]			22.4				21.5	
COc1cccc(NC(=O)c2c(O)c3cccnc3n(-c3ccccc3)c2=O)c1 [Compound 18, 4-Hydroxy-N-(3-methoxyphenyl)-2-oxo-1-phenyl-1H-1,8-naphthyridine-3-carboxamide]			26.9				22.1	
COc1ccccc1NC(=O)c1c(O)c2cccnc2n(-c2ccccc2)c1=O [Compound 19, 4-Hydroxy-N-(2-methoxyphenyl)-2-oxo-1-phenyl-1H-1,8-naphthyridine-3-carboxamide]				34.2	> 100	> 300	26.8	
O=C(NC1CCN(Cc2ccccc2)CC1)c1c(O)c2cccnc2n(-c2ccccc2)c1=O [Compound 21, N-(1-Benzylpiperidin-4-yl)-4-hydroxy-2-oxo-1-phenyl-1H-1,8-naphthyridine-3-carboxamide]		50.2	32.4				22.1	
O=C(NC1=NCCS1)c1c(O)c2cccnc2n(-c2ccccc2)c1=O [Compound 22, 4-Hydroxy-2-oxo-1-phenyl-N-(thiazolin-2-yl)-1H-1,8-naphthyridine-3-carboxamide]		51	89.2		> 100	> 300	34.6	33.4
O=C(Nc1cnccn1)c1c(O)c2cccnc2n(-c2ccccc2)c1=O [Compound 23, 4-Hydroxy-2-oxo-1-phenyl-N-(pyrazin-2-yl)-1H-1,8-naphthyridine-3-carboxamide]	22.2	43.2	24	22.7	> 100	> 300	26.7	
CCc1nnc(NC(=O)c2c(O)c3cccnc3n(-c3ccccc3)c2=O)s1 [Compound 24, 4-Hydroxy-2-oxo-1-phenyl-N-(5-ethyl-1,3,4-thiadiazol-2-yl)-1H-1,8-naphthyridine-3-carboxamide]		32.1	29.7					
O=C(NN1CCOCC1)c1c(O)c2cccnc2n(-c2ccccc2)c1=O [Compound 27, 4-Hydroxy-N-morpholino-2-oxo-1-phenyl-1H-1,8-naphthyridine-3-carboxamide]		23.6						
O=C(NCc1ccncc1)c1c(O)c2cccnc2n(-c2ccccc2)c1=O [Compound 28, 4-Hydroxy-2-oxo-1-phenyl-N-(4-pyridylmethyl)-1H-1,8-naphthyridine-3-carboxamide]				27.3	> 100	> 300		41.6
O=C(NCc1cccnc1)c1c(O)c2cccnc2n(-c2ccccc2)c1=O [Compound 29, 4-Hydroxy-2-oxo-1-phenyl-N-(3-pyridylmethyl)-1H-1,8-naphthyridine-3-carboxamide]					> 100	> 300		33.3
